Experimental data reported in US20260297085A1, “1 H-PYRROLO[2,3-B]PYRIDIN-4-YL]-2-OXOPYRROLIDINE-3-CARBONITRILE DERIVATIVES AS TYROSINE KINASE 2 (TYK2) INHIBITORS FOR THE TREATMENT OF INFLAMMATORY DISEASES” (BIOGEN MA INC., priority 2023, published 2026).

Assays:
Settings in all cases: JH1 kinase domain, ADP-Glo
[1] = target: T1, human JAK3 kinase domain (JH1) (Homo sapiens, UniProt P52333); test: JH1 biochemical assay for JAK3 (ADP-Glo kinase assay, recombinant JH1 catalytic domain, JAK3-974 peptide, 4 μM ATP)
T1 construct: recombinantly generated catalytic kinase (also known as JH1) domain of human JAK1, JAK2, JAK3 and TYK2
Description: (§1) Compounds of the disclosure were assessed for their ability to inhibit TYK2, JAK1, JAK2, and JAK3 activity. The inhibitory properties of the compounds of the disclosure described herein can be evidenced by testing in any one of the following protocols.
(§2) The kinase activity of recombinantly generated catalytic kinase (also known as JH1) domain of human JAK1, JAK2, JAK3 and TYK2 were evaluated in a plate-based assay using the ADP-Glo™ Kinase Assay platform. Specifically, 4 nM of recombinant JAK1 kinase domain is used to phosphorylate 50 μM of a JAK3-342 (sequence ALVDGYFRLTT) peptide in the presence of 35 μM ATP. Catalytic activities of recombinant JAK2, JAK3 and TYK2 kinase domain (0.2, 0.3 and 2 nM, respectively) are evaluated by the phosphorylation status of the JAK3-974 (50 μM; sequence LPLDKDYYVVR) peptide with the addition of ATP (15, 4 and 10 μM, respectively). The reactions proceed for 100 minutes and the catalytic activity is quantified by first depleting the unused ATP, converting the hydrolyzed ADP into ATP to generate luminescence in a luciferase reaction; which is the basis of the ADP-Glo platform. Compounds are tested at either 10 μM or 1 μM top concentration, 11 points of 3-fold dilution. The data is normalized and the percent activity versus log concentration of compound is fitted with a 4-parameter logistic model to generate a curve and an IC50 value.

[2] = target: T2, human TYK2 kinase domain (JH1) (Homo sapiens, UniProt P29597); test: JH1 biochemical assay for TYK2 (ADP-Glo kinase assay, recombinant JH1 catalytic domain, JAK3-974 peptide, 10 μM ATP)
T2 construct: recombinantly generated catalytic kinase (also known as JH1) domain of human JAK1, JAK2, JAK3 and TYK2
T2 sequence (P29597 897-1176 limits assumed): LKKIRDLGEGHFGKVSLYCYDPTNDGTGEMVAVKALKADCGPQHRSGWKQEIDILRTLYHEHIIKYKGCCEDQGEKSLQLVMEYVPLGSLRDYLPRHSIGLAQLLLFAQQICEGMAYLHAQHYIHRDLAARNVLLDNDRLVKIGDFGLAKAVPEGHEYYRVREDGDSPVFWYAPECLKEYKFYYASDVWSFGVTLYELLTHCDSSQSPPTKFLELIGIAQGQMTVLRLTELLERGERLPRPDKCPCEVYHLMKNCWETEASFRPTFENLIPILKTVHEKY
Description: as §1, §2

[3] = target: T3, human JAK2 kinase domain (JH1) (Homo sapiens, UniProt O60674); test: JH1 biochemical assay for JAK2 (ADP-Glo kinase assay, recombinant JH1 catalytic domain, JAK3-974 peptide, 15 μM ATP)
T3 construct: recombinantly generated catalytic kinase (also known as JH1) domain of human JAK1, JAK2, JAK3 and TYK2
Description: as §1, §2

[4] = target: T4, human JAK1 kinase domain (JH1) (Homo sapiens, UniProt P23458); test: JH1 biochemical assay for JAK1 (ADP-Glo kinase assay, recombinant JH1 catalytic domain, JAK3-342 peptide, 35 μM ATP)
T4 construct: recombinantly generated catalytic kinase (also known as JH1) domain of human JAK1, JAK2, JAK3 and TYK2
Description: as §1, §2

T3 sequence (O60674 849-1124 limits assumed): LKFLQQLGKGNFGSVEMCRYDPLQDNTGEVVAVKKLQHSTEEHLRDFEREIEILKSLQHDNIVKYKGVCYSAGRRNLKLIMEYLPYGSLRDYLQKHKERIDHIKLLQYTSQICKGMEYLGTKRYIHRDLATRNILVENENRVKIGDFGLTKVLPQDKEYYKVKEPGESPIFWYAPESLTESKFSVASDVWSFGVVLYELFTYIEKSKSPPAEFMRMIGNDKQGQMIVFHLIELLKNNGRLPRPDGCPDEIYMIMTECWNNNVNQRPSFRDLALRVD
T4 sequence (P23458 875-1153 limits assumed): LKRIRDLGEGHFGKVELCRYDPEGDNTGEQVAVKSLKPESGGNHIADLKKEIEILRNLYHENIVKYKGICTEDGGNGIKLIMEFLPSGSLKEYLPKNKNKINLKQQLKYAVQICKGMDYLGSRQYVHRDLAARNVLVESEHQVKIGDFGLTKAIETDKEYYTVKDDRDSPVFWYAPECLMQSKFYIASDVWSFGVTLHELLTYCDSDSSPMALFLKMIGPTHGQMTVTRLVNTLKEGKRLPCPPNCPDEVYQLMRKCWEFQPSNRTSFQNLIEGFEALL
T1 sequence (P52333 822-1111 limits assumed): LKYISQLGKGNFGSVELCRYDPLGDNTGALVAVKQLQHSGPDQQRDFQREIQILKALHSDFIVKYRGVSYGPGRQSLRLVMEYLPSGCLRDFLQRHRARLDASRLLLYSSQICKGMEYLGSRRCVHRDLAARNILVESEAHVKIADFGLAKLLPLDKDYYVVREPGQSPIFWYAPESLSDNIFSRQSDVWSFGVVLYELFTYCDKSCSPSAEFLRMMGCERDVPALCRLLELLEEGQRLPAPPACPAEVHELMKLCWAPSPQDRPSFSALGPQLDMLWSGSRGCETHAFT

| Compound | IC50 [1] | IC50 [2] | IC50 [3] | IC50 [4] |
| --- | --- | --- | --- | --- |
| Cn1cc(-c2cc3c(N4CC[C@@](CC#N)(C5CC5)C4=O)ccnn3c2)cn1 [Example 27, (R)-2-(3-cyclopropyl-1-(6-(1-methyl-1H-pyrazol-4-yl)pyrrolo[1,2-b]pyridazin-4-yl)-2-oxopyrrolidin-3-yl)acetonitrile] | 1 to 5 µM | > 100 nM | 1 to 5 µM | 1 to 5 µM |
| C[C@H]1C[C@](C#N)(C2CC2)C(=O)N1c1ccnn2cc(-c3cnn(C)c3)cc12 [Example 30, (3R,5S)-3-cyclopropyl-5-methyl-1-(6-(1-methyl-1H-pyrazol-4-yl)pyrrolo[1,2-b]pyridazin-4-yl)-2-oxopyrrolidine-3-carbonitrile] | > 10 µM | > 100 nM | > 10 µM | > 10 µM |
| C[C@H]1C[C@@](C#N)(C2CC2)C(=O)N1c1ccnn2cc(-c3cnn(C)c3)cc12 [Example 31, (3S,5S)-3-cyclopropyl-5-methyl-1-(6-(1-methyl-1H-pyrazol-4-yl)pyrrolo[1,2-b]pyridazin-4-yl)-2-oxopyrrolidine-3-carbonitrile] | > 10 µM | > 100 nM | > 10 µM | > 10 µM |
| CC[C@H]1C[C@](C#N)(C2CC2)C(=O)N1c1ccnn2cc(-c3cnn(C)c3)cc12 [Example 32, (3R,5S)-3-cyclopropyl-5-ethyl-1-(6-(1-methyl-1H-pyrazol-4-yl)pyrrolo[1,2-b]pyridazin-4-yl)-2-oxopyrrolidine-3-carbonitrile] | > 10 µM | > 100 nM | > 10 µM | > 10 µM |
| CC[C@@H]1C[C@](C#N)(C2CC2)C(=O)N1c1ccnn2cc(-c3cnn(C)c3)cc12 [Example 33, (3R,5R)-3-cyclopropyl-5-ethyl-1-(6-(1-methyl-1H-pyrazol-4-yl)pyrrolo[1,2-b]pyridazin-4-yl)-2-oxopyrrolidine-3-carbonitrile] | 5 to 10 µM | > 100 nM | 1 to 5 µM | 5 to 10 µM |
| C[C@@H]1CN(c2ccnn3cc(-c4cccnc4OC(F)F)cc23)C(=O)[C@]1(C#N)C1CC1 [Example 50, (3R,4S)-3-cyclopropyl-1-(6-(2-(difluoromethoxy)pyridin-3-y1)pyrrolo[1,2-b]pyridazin-4-yl)-4-methyl-2-oxopyrrolidine-3-carbonitrile] | 1 to 5 µM | 50 to 100 nM | 1 to 5 µM | 1 to 5 µM |

Other lines, results leading:

| IC50 [1] | IC50 [2] | IC50 [3] | IC50 [4] | Compound |
| --- | --- | --- | --- | --- |
| > 10 µM | > 100 nM | > 10 µM | > 10 µM | C[C@H]1CN(c2ccnn3cc(-c4cnn(C)c4)cc23)C(=O)[C@@]1(C#N)C1CC1 [Example 29, (3S,4R)-3-cyclopropyl-4-methyl-1-(6-(1-methyl-1H-pyrazol-4-yl)pyrrolo[1,2-b]pyridazin-4-yl)-2-oxopyrrolidine-3-carbonitrile] |
| 1 to 5 µM | 20 to 50 nM | 1 to 5 µM | 0.1 to 1 µM | C[C@@H]1CN(c2ccnn3cc(-c4ccnn4C)cc23)C(=O)[C@]1(C#N)C1CC1 [Example 49, (3R,4S)-3-cyclopropyl-4-methyl-1-(6-(1-methyl-1H-pyrazol-5-yl)pyrrolo[1,2-b]pyridazin-4-yl)-2-oxopyrrolidine-3-carbonitrile] |
| 1 to 5 µM | 50 to 100 nM | 1 to 5 µM | 1 to 5 µM | C[C@@H]1CN(c2ccnn3cc(-c4cncc(C(F)(F)F)c4)cc23)C(=O)[C@]1(C#N)C1CC1 [Example 70, (3R,4S)-3-cyclopropyl-4-methyl-2-oxo-1-(6-(5-(trifluoromethyl)pyridin-3-yl)pyrrolo[1,2-b]pyridazin-4-yl)pyrrolidine-3-carbonitrile] |
| 1 to 5 µM | 50 to 100 nM | 1 to 5 µM | 0.1 to 1 µM | COc1ncc(-c2cc3c(N4C[C@@H](C)[C@@](C#N)(C5CC5)C4=O)ccnn3c2)cn1 [Example 76, (3R,4S)-3-cyclopropyl-1-(6-(2-methoxypyrimidin-5-yl)pyrrolo[1,2-b]pyridazin-4-yl)-4-methyl-2-oxopyrrolidine-3-carbonitrile] |
